# US9662341B2, “Multifunctional topical formulation for the treatment of acne vulgaris and other skin conditions” (Kantian Sciences Corporation, priority 2011, dated 2017)
# Read-outs that look alike come from different tables or passages of the source.
# Experiments:
# E. coli = assay: Kill of E. coli within 30 seconds of contact (inventor's earlier studies); format: cell-based
# [1] = Percentage of mandelic acid in acid and salt forms at varying pH values; format: physicochemical
# Text: The same consideration of activity vs. acid:salt forms applies to mandelic acid, where the antimicrobial activity of an aqueous solution containing this material is strongly dependent on the pH of the system.
# [2] = HONO form in ratios of >~2:1 acid/salt
# acne = conditions: cited from earlier work
smiles,measurement,setting,value
O=C(O)C(O)c1ccccc1 (centres unmarked) [mandelic acid],E. coli killed relative to malic acid,E. coli,1.5 million
same,E. coli killed relative to lactic acid,E. coli; same conditions,3000 times
same,Mandelic Acid %,[1]; pH 2.46,90%
same,Mandelic Acid %,[1]; pH 2.81,80%
same,Mandelic Acid %,[1]; pH 3.04,70%
same,Mandelic Acid %,[1]; pH 3.23,60%
same,Mandelic Acid %,[1]; pH 3.41,50%
same,Mandelic Acid %,[1]; pH 3.59,40%
same,Mandelic Acid %,[1]; pH 3.78,30%
same,Mandelic Acid %,[1]; pH 4.01,20%
O=C(O)[C@H](O)c1ccccc1 [Mandelate],Mandelate %,[1]; pH 2.46,10%
same,Mandelate %,[1]; pH 2.81,20%
same,Mandelate %,[1]; pH 3.04,30%
same,Mandelate %,[1]; pH 3.23,40%
same,Mandelate %,[1]; pH 3.41,50%
same,Mandelate %,[1]; pH 3.59,60%
same,Mandelate %,[1]; pH 3.78,70%
same,Mandelate %,[1]; pH 4.01,80%
O=NO [Nitrite],Nitrite %,pH 1.5,1.6%
same,Nitrite %,pH 2.0,4.8%
same,Nitrite %,pH 2.3,9.1%
same,Nitrite %,pH 2.6,16.7%
same,Nitrite %,pH 2.8,24.0%
same,Nitrite %,pH 3.0,33.3%
same,Nitrite %,pH 3.3,50.0%
same,Nitrite %,pH 3.5,61.2%
same,Nitrite %,pH 4.0,83.4%
same,Nitrite %,pH 4.5,94.0%
same,Nitrite %,pH 5.0,98.0%
O=NO [nitrous acid],Nitrous Acid %,pH 1.5,98.4%
same,Nitrous Acid %,pH 2.0,95.2%
same,Nitrous Acid %,pH 2.3,90.9%
same,Nitrous Acid %,pH 2.6,83.3%
same,Nitrous Acid %,pH 2.8,76.0%
same,Nitrous Acid %,pH 3.0,66.7%
same,Nitrous Acid %,pH 3.3,50.0%
same,Nitrous Acid %,pH 3.5,38.8%
same,Nitrous Acid %,pH 4.0,16.6%
same,Nitrous Acid %,pH 4.5,6.0%
same,Nitrous Acid %,pH 5.0,2.0%
same,longer-range stability of nitrous acid systems,[2],significantly diminished
O=C(O)CCCCCCCC(=O)O [azelaic acid],Time for acne lesions to start disappearing,acne; after starting topical application,one to two months
same,Efficacy versus other topical Rx formulations,"acne; benzoyl peroxide, tretinoin, antibiotics as comparators",works as well as other topical Rx formulations
CC(O)C(=O)O (centres unmarked) [lactic acid],E. coli killed relative to malic acid,E. coli,500 times
